Test results published in ChEMBL document CHEMBL1201862, “PubChem BioAssay data set” (2004).
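Results reflect a 48-hour exposure of cells in 96-well plates to compound at five concentrations. Abbreviation: GI50, concentration required for 50% inhibition of growth.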 Calls of active or inactive are those of the source. Cut-off read from the data, not from the text of the source: active = GI50 up to about 1.1 µM and inactive = higher.

Tests used:
Assay in all cases: NCI-60 cell line screen, 48 h
786-0 = tested on: 786-0
A498 = tested on: A498
A549 = tested on: A549
ACHN = tested on: ACHN
BT-549 = tested on: BT-549
CAKI-1 = tested on: CAKI-1
CCRF-CEM = tested on: CCRF-CEM
COLO 205 = tested on: COLO 205
DU-145 = tested on: DU-145
EKVX = tested on: EKVX
HCC 2998 = tested on: HCC 2998
HCT-116 = tested on: HCT-116
HCT-15 = tested on: HCT-15
HL-60 = tested on: HL-60
HOP-62 = tested on: HOP-62
HOP-92 = tested on: HOP-92
HT-29 = tested on: HT-29
Hs-578T = tested on: Hs-578T
IGROV-1 = tested on: IGROV-1
K562 = tested on: K562
KM12 = tested on: KM12
LOX IMVI = tested on: LOX IMVI
M14 = tested on: M14
MDA-MB-231 = tested on: MDA-MB-231
MDA-MB-435 = tested on: MDA-MB-435
MDA-N = tested on: MDA-N
MOLT-4 = tested on: MOLT-4
Malme-3M = tested on: Malme-3M
NCI-H226 = tested on: NCI-H226
NCI-H23 = tested on: NCI-H23
NCI-H460 = tested on: NCI-H460
NCI-H522 = tested on: NCI-H522
NCI/ADR-RES = tested on: NCI/ADR-RES
OVCAR-3 = tested on: OVCAR-3
OVCAR-4 = tested on: OVCAR-4
OVCAR-5 = tested on: OVCAR-5
OVCAR-8 = tested on: OVCAR-8
PC-3 = tested on: PC-3
RXF 393 = tested on: RXF 393
SF-268 = tested on: SF-268
SF-295 = tested on: SF-295
SF-539 = tested on: SF-539
SK-MEL-28 = tested on: SK-MEL-28
SK-MEL-2 = tested on: SK-MEL-2
SK-MEL-5 = tested on: SK-MEL-5
SK-OV-3 = tested on: SK-OV-3
SN12C = tested on: SN12C
SNB-19 = tested on: SNB-19
SNB-75 = tested on: SNB-75
SR = tested on: SR
SW-620 = tested on: SW-620
TK-10 = tested on: TK-10
U-251 = tested on: U-251
UACC-257 = tested on: UACC-257
UACC-62 = tested on: UACC-62
UO-31 = tested on: UO-31
RPMI-8226 = tested on: RPMI-8226
MCF7 = tested on: MCF7
T47D = tested on: T47D

Measured: GI50

c1ccc(C2(c3ccccc3)S/C(=C3/SC(c4ccccc4)(c4ccccc4)c4ccccc43)c3ccccc32)cc1
> 100 µM: HCT-15
inactive: 786-0 > 100 µM | A498 > 100 µM | A549 > 100 µM | ACHN > 100 µM | BT-549 > 100 µM | CAKI-1 > 100 µM | CCRF-CEM > 100 µM | COLO 205 > 100 µM | DU-145 > 100 µM | EKVX > 100 µM | HCC 2998 > 100 µM | HCT-116 > 100 µM | HL-60 > 100 µM | HOP-62 > 100 µM | HOP-92 > 100 µM | HT-29 > 100 µM | Hs-578T > 100 µM | IGROV-1 > 100 µM | K562 > 100 µM | KM12 > 100 µM | LOX IMVI > 100 µM | M14 > 100 µM | MDA-MB-231 > 100 µM | MDA-MB-435 > 100 µM | MDA-N > 100 µM | MOLT-4 > 100 µM | Malme-3M > 100 µM | NCI-H226 > 100 µM | NCI-H23 > 100 µM | NCI-H460 > 100 µM | NCI-H522 > 100 µM | NCI/ADR-RES > 100 µM | OVCAR-3 > 100 µM | OVCAR-4 > 100 µM | OVCAR-5 > 100 µM | OVCAR-8 > 100 µM | PC-3 > 100 µM | RXF 393 > 100 µM | SF-268 > 100 µM | SF-295 > 100 µM | SF-539 > 100 µM | SK-MEL-28 > 100 µM | SK-MEL-2 > 100 µM | SK-MEL-5 > 100 µM | SK-OV-3 > 100 µM | SN12C > 100 µM | SNB-19 > 100 µM | SNB-75 > 100 µM | SR > 100 µM | SW-620 > 100 µM | TK-10 > 100 µM | U-251 > 100 µM | UACC-257 > 100 µM | UACC-62 > 100 µM | UO-31 > 100 µM

O=C(O)c1cc2ccccc2c(/N=N/c2c([N+](=O)[O-])cc([N+](=O)[O-])cc2S(=O)(=O)O)c1O
inactive: 786-0 > 100 µM | A549 > 100 µM | ACHN > 100 µM | BT-549 > 100 µM | CAKI-1 > 100 µM | CCRF-CEM > 100 µM | COLO 205 > 100 µM | EKVX > 100 µM | HCT-116 > 100 µM | HOP-62 > 100 µM | HOP-92 > 100 µM | HT-29 > 100 µM | Hs-578T > 100 µM | IGROV-1 > 100 µM | K562 > 100 µM | KM12 > 100 µM | LOX IMVI > 100 µM | M14 > 100 µM | MDA-MB-231 > 100 µM | MDA-MB-435 > 100 µM | MDA-N > 100 µM | MOLT-4 > 100 µM | Malme-3M > 100 µM | NCI-H226 > 100 µM | NCI-H23 > 100 µM | NCI-H522 > 100 µM | NCI/ADR-RES > 100 µM | OVCAR-3 > 100 µM | OVCAR-4 > 100 µM | OVCAR-5 > 100 µM | OVCAR-8 > 100 µM | PC-3 > 100 µM | RPMI-8226 > 100 µM | RXF 393 > 100 µM | SF-268 > 100 µM | SF-295 > 100 µM | SK-MEL-28 > 100 µM | SK-MEL-2 > 100 µM | SK-MEL-5 > 100 µM | SK-OV-3 > 100 µM | SN12C > 100 µM | SNB-19 > 100 µM | SNB-75 > 100 µM | SW-620 > 100 µM | TK-10 > 100 µM | U-251 > 100 µM | UACC-257 > 100 µM | UACC-62 > 100 µM | UO-31 > 100 µM
> 100 µM: HCT-15

Nc1nc(-[n+]2ccc(-c3ccncc3)cc2)nc(Cl)c1Cl
inactive: 786-0 13.5 µM | A498 > 100 µM | A549 > 100 µM | ACHN > 100 µM | BT-549 > 100 µM | CCRF-CEM 13.9 µM | COLO 205 36.2 µM | DU-145 > 100 µM | EKVX 26.6 µM | HCC 2998 > 100 µM | HCT-116 > 100 µM | HL-60 18.6 µM | HOP-62 43 µM | HOP-92 23.8 µM | HT-29 88.5 µM | IGROV-1 17.6 µM | K562 29.9 µM | KM12 43.6 µM | LOX IMVI 15 µM | M14 > 100 µM | MCF7 4.6 µM | MDA-MB-231 35.4 µM | MDA-MB-435 > 100 µM | MDA-N > 100 µM | MOLT-4 18.9 µM | Malme-3M 34.9 µM | NCI-H226 > 100 µM | NCI-H23 22.5 µM | NCI-H460 > 100 µM | NCI/ADR-RES > 100 µM | OVCAR-3 17.3 µM | OVCAR-4 > 100 µM | OVCAR-5 > 100 µM | PC-3 54.3 µM | RPMI-8226 17.2 µM | RXF 393 16.5 µM | SF-268 18.4 µM | SF-539 26.8 µM | SK-MEL-28 47 µM | SK-MEL-2 57.4 µM | SK-MEL-5 > 100 µM | SK-OV-3 > 100 µM | SN12C 20.3 µM | SNB-19 27 µM | SR 20 µM | SW-620 25.5 µM | T47D 16.5 µM | TK-10 26.3 µM | U-251 35.4 µM | UACC-257 20.4 µM | UACC-62 > 100 µM | UO-31 32.9 µM
49.4 µM: HCT-15
